{"source": "patent EP1437117A1", "about": "“Use of Sinapic acid and/or its derivatives” (Cognis France S.A., priority 2002, dated 2004)", "key": {"[1]": {"system": "Adenosindinukleotide (ADN) der Mitochondrien", "assay": "Protection of mitochondrial genome against oxidative stress", "format": "cell-based", "details": "damage caused by oxidative stress", "from_the_text": "Sie vermindern die Schädigung des mitochondrialen Genoms, die durch oxidativen Stress bewirkt wird und führen dadurch zu einer Verzögerung der Alterung von Mitochondrien und zu einer Verbesserung des Energiepotentials der Zellen. Somit können Sinapinsäure und ihre Derivate über die Verbesserung der mitochondrialen Funktion und Energiebilanz zum Schutz der Haut gegen Alterung und Faltenbildung, zur Steigerung effektiver Reparaturmechanismen durch Alterung und Sonneneinstrahlung geschädigter Haut und zur verbesserten Wundheilung der Haut entscheidend beitragen."}, "[2]": {"system": "zellulärer DNA", "assay": "UV-induced thymine dimer formation in cellular DNA", "format": "cell-based", "details": "induced by UV radiation; topical application", "from_the_text": "Es konnte festgestellt werden, dass durch die topische Anwendung von Sinapinsäure und ihren Derivaten insbesondere die Bildung von Thymin-Dimeren in zellulärer DNA, die durch UV-Strahlung induziert wird, vermindert wird. Dadurch kann die Anzahl der Mutationen gesenkt und eine Stärkung des dermalen Immunsystems bewirkt werden. Ein weiterer Gegenstand der Erfindung ist daher die Verwendung von Sinapinsäure und/oder Sinapinsäurederivaten zur Herstellung von kosmetischen und/oder dermopharmazeutischen Zubereitungen zum Schutz vor Thymin-Dimerbildung nach Einfluß von UV-Strahlung in Hautzellen und zur Verbesserung des DNA-Reparaturmechanismus in Hautzellen."}, "[3]": {"system": "dermaler Fibroblasten", "assay": "Collagen synthesis of dermal fibroblasts", "format": "cell-based", "from_the_text": "Die menschliche Haut enthält vorwiegend zwei Typen von Collagen: Collagen Typ I und Collagen Typ III, synthetisiert durch dermale Fibroblasten. Beide Collagentypen stellen wesentliche Strukturkomponenten der extrazellulären Matrix des Bindegewebes dar und tragen in hohem Maße zur Struktur der gesamten Haut bei. Ein wichtiges Kennzeichen alternder Haut ist die Abnahme des Collagengehaltes in der Dermis und eine damit verbundene Abnahme der Elastizität, die zusätzlich durch eine Verschlechterung der Fibroblastenfunktion durch nicht enzymatische Glycosylierung (Glycation) und oxidativen Abbau bewirkt wird. Es wurde nun festgestellt, dass Sinapinsäure und ihre Derivate die Collagensynthese dermaler Fibroblasten stimulieren und auf diese Weise die chronologische und die UV-Strahlungsinduzierte Hautalterung verzögert werden kann. Die Verwendung von Sinapinsäure und/oder Sinapinsäurederivaten zur Herstellung kosmetischer und/oder dermopharmazeutischer Zubereitungen zur Stimulation der Collagensynthese in dermalen Fibroblasten ist daher ein weiterer Gegenstand der Erfindung."}, "[4]": {"system": "Neuropeptiden wie beispielsweise Substanz P oder CGRP", "assay": "Release of neuropeptides", "format": "cell-based", "from_the_text": "Die Haut ist ein Gewebe, das mit einer Vielzahl von Nervenfasern durchzogen ist, deren Zellkörper in den dorsalen Ganglien (dorsal root ganglia - DRG) zusammenführen. Neurone des Typs Aδ und C erreichen mit ihren Zellen die Dermis und auch die Epidermis. Typ C Neurone sind für die Detektion von noziceptiven Stimuli verantwortlich. Keratinocyten und Nervenfasern können eine Vielzahl unterschiedlicher Cytokine produzieren, die unter dem Einfluß externer Stimuli ausgeschieden werden und die sensorischen Enden der Nervenfasern stimulieren. Diese setzen dann wiederum Peptide frei, die die metabolische Aktivität der Keratinocyten über Messenger-Moleküle beeinflussen. Auf diese Weise kommunizieren sensorische Nerven und Keratinocyten kontinuierlich miteinander. Eine Disregulation dieses physiologischen Gleichgewichts erklärt viele pathologische Erscheinungen von empfindlicher Haut oder beispielsweise Psoriasis. Es konnte nun festgestellt werden, dass Sinapinsäure und ihre Derivate insbesondere empfindliche Haut dadurch beruhigen, dass sie die Freisetzung von Neuropeptiden wie beispielsweise Substanz P oder CGRP herabsetzen."}, "[5]": {"format": "physicochemical", "from_the_text": "Vorzugsweise wird jedoch die reine, nicht derivatisierte Sinapinsäure und deren Salze eingesetzt. […] Die entstehenden Abbauprodukte bilden gefärbte übelriechende Substanzen, die auch zu Hautreizungen führen können. Es ist daher ein weiterer Gegenstand der Erfindung Sinapinsäure und/oder ihre Derivate in verkapselter, komplexierter oder adsorbierter Form in den Zubereitungen einzusetzen. Dabei bietet sich insbesondere die Verkapselung in Liposomen oder einer hydrophoben Matrix, die Komplexierung in Cyclodextrinen und die Adsorption an hydrophobe Träger an. Bevorzugt wird Sinapinsäure und/oder ihre Derivate in Mikrokapseln eingearbeitet."}, "[6]": {"details": "in Ethanol; cited from earlier work"}, "[7]": {"system": "Carrageenan-induzierten Rattenpfotenödem-Modell", "details": "after injection into the paw; Chawla AS et al 1993; cited from earlier work"}}}
{"smiles": "COc1cc(/C=C/C(=O)O)cc(OC)c1O", "note": "[Sinapinsäure, 4-Hydroxy-3,5-Dimethoxy-Zimtsäure]", "values": [{"measurement": "Wirkung auf Adenosindinukleotide (ADN) der Mitochondrien", "setting": "[1]", "value": "schützende Wirkung"}, {"measurement": "Bildung von Thymin-Dimeren in zellulärer DNA", "setting": "[2]", "value": "vermindert"}, {"measurement": "Collagensynthese dermaler Fibroblasten", "setting": "[3]", "value": "stimulieren"}, {"measurement": "Freisetzung von Neuropeptiden wie beispielsweise Substanz P oder CGRP", "setting": "[4]", "value": "herabsetzen"}, {"measurement": "chemische Stabilität", "setting": "[5]", "value": "leicht zersetzt"}, {"measurement": "UV-Absorptionsmaximum", "setting": "[6]", "value": 323, "unit": "nm"}, {"measurement": "anti-inflammatorische Wirkung", "setting": "[7]", "value": "anti-inflammatorische Wirkung"}]}
